In US9169279B2, “Crystallization method and bioavailability” (THAR PHARMACEUTICALS, INC., priority 2009, dated 2015):
Read-outs that look alike come from different tables or passages of the source.

How the values were obtained:
[1] = Dog PK study: zoledronic acid in serum after IV or oral capsule dosing, enteric or non-enteric coated, with or without excess coformer (LC/MS/MS); format: in vivo, Beagle dogs; details: beagle
Source text: This can be attributed to the fact that both animals have historically been used in the safety evaluation and PK screening studies and are recommended by appropriate regulatory agencies. […] Additional tests included ID administration in rats and administration of enteric coated capsules in dogs.
USA. Some animals have surgical catheters (jugular vein and intraduodenum) were implanted to the animals prior to the studies. Beagle dogs from Marshall Farms, N.Y., USA, weighing from (9-12 kg) were used in the studies presented herein. Surgical catheters (jugular vein) were implanted prior to the studies.
The dose volume of each dog was adjusted based upon the average weight of the dog. • ii. […]
Blood samples were placed without the use of an anticoagulant and allowed to sit at room temperature for approximately 30 minutes. Samples were then centrifuged at a temperature of 4° C., at a speed of 13,000 rpm, for 5 minutes. Serum was collected and split into two aliquots and stored frozen (−80° C.) until analysis.
In this study, capsules of particulate materials (zoledronic:DL-lysine:water complex and excess pure DL-lysine).

[2] = cited from earlier work
[3] = iv, 0.12 mg/kg, Leg 38, 0.12 mg/kg IV, saline solution, read-out: Average serum concentration of 4 dogs
[4] = iv, 0.183 mg/kg, Leg 13, 0.183 mg/kg IV, saline solution, read-out: Average serum concentration of 5 dogs
[5] = po, Leg 19, 61.3 mg with 322.9 mg DL-lysine monohydrate, gelatin capsule, PO, read-out: Average serum concentration of 5 dogs
[6] = po, Leg 24, 64.0 mg with 374.8 mg L-lysine HCl, gelatin capsule, PO, read-out: Average serum concentration of 5 dogs

Work on `O=P(O)(O)C(O)(Cn1ccnc1)P(=O)(O)O` [Zoledronic acid, (1-hydroxy-2-imidazol-1-yl-1-phosphono-ethyl)phosphonic acid] yielded a concentration at 5 min [1, 3] of 288 ng/mL, a concentration at 10 min [1, 3] of 542 ng/mL and a concentration at 0.25 h [1, 3] of 711 ng/mL. For the same compound, the concentration at 20 min [1, 3] was 529 ng/mL, the concentration at 25 min [1, 3] was 406 ng/mL and the concentration at 0.5 h [1, 3] was 358 ng/mL. The concentration at 0.75 h [1, 3] was 240 ng/mL, the concentration at 1 h [1, 3] was 174 ng/mL and the concentration at 1.25 h [1, 3] was 121 ng/mL. For the same compound, the concentration at 1.5 h [1, 3] was 90.6 ng/mL, the concentration at 2 h [1, 3] was 55.7 ng/mL and the concentration at 4 h [1, 3] was 15.1 ng/mL. The concentration at 8 h [1, 3] was 5.74 ng/mL, the concentration at 24 h [1, 3] was 2.49 ng/mL and the concentration at 0 h [1, 4] was 0.64 ng/mL. For the same compound, the concentration at 5 min [1, 4] was 477 ng/mL, the concentration at 10 min [1, 4] was 756 ng/mL and the concentration at 0.25 h [1, 4] was 1060 ng/mL. It also gave a concentration at 20 min [1, 4] of 746 ng/mL, a concentration at 25 min [1, 4] of 629 ng/mL and a concentration at 0.5 h [1, 4] of 523 ng/mL. For the same compound, the concentration at 0.75 h [1, 4] was 343 ng/mL, the concentration at 1 h [1, 4] was 245 ng/mL and the concentration at 1.25 h [1, 4] was 183 ng/mL. The concentration at 1.5 h [1, 4] was 140 ng/mL, the concentration at 2 h [1, 4] was 80.9 ng/mL and the concentration at 4 h [1, 4] was 23.4 ng/mL. For the same compound, the concentration at 8 h [1, 4] was 8.78 ng/mL, the concentration at 24 h [1, 4] was 3.84 ng/mL and the concentration at 0 h [1, 5] was 0 ng/mL. It also gave a concentration at 5 min [1, 5] of 34.1 ng/mL, a concentration at 10 min [1, 5] of 42.7 ng/mL and a concentration at 0.25 h [1, 5] of 220 ng/mL. For the same compound, the concentration at 0.5 h [1, 5] was 659 ng/mL, the concentration at 0.75 h [1, 5] was 479 ng/mL and the concentration at 1 h [1, 5] was 384 ng/mL. For the same compound, the concentration at 1.5 h [1, 5] was 210 ng/mL, the concentration at 2 h [1, 5] was 136 ng/mL and the concentration at 4 h [1, 5] was 34.2 ng/mL. It also gave a concentration at 8 h [1, 5] of 8.53 ng/mL, a concentration at 24 h [1, 5] of 2.07 ng/mL and a concentration at 0 h [1, 6] of 0 ng/mL. The concentration at 5 min [1, 6] was 0 ng/mL, the concentration at 10 min [1, 6] was 1.2 ng/mL and the concentration at 0.25 h [1, 6] was 14.1 ng/mL. The concentration at 0.5 h [1, 6] was 172 ng/mL, the concentration at 0.75 h [1, 6] was 340 ng/mL and the concentration at 1 h [1, 6] was 283 ng/mL. For the same compound, the concentration at 1.5 h [1, 6] was 163 ng/mL, the concentration at 2 h [1, 6] was 100 ng/mL and the concentration at 4 h [1, 6] was 26.3 ng/mL. The concentration at 8 h [1, 6] was 4.56 ng/mL, the concentration at 24 h [1, 6] was 0.89 ng/mL and the solubility ([2]; in 0.1 N HCl solution) was “sparingly soluble”. For the same compound, the solubility ([2]; in 0.1 N NaOH) was “freely soluble”, the solubility ([2]; in various organic solvents) was “practically insoluble” and the solubility ([2]; in water) was “sparingly soluble”.
